According to US7825217B2, “Polypeptides for bone mineralization” (University of Kansas Medical Center, priority 2006, dated 2010):
Non-standard residues stand in square brackets, D forms with d. Residues, ends and D or L forms follow the SMILES beside them. *: point of attachment. Biotin = O=C1N[C@H]2[C@H](CS[C@H]2CCCCC(=O)*)N1; pS = N[C@@H](COP(=O)(O)O)C(=O)O; Ahx = NCCCCCC(=O)O

How the values were obtained:
[1] = target: T1, PHEX (Homo sapiens, UniProt P78562); experiment: Surface plasmon resonance: PHEX analyte binding to immobilized biotinylated ASARM-PO4; settings: immobilized biotinylated ASARM-PO4, soluble PHEX analyte, FIG. 4(A); read-out: kinetics of binding
T1 sequence (P78562 46-749 limits assumed): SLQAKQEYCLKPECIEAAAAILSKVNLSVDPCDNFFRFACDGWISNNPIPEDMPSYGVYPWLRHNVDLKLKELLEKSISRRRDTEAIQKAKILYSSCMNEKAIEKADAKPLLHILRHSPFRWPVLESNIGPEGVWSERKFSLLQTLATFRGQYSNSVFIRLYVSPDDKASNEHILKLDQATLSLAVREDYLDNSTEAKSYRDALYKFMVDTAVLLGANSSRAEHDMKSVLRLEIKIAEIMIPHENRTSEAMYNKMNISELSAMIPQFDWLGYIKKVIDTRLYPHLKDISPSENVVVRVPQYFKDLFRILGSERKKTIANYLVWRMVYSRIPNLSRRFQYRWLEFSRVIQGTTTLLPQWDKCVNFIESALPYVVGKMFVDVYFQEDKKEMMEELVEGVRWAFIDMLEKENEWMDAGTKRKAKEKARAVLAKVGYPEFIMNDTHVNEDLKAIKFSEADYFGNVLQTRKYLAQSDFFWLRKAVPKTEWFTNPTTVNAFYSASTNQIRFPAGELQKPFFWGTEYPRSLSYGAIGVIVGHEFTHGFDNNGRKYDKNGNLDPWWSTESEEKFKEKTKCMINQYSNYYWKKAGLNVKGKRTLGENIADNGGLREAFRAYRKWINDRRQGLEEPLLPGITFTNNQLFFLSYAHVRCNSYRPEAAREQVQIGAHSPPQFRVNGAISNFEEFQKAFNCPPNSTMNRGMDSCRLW
Description: A Biacore 3000 SPR instrument in conjunction with CM5 research grade chips was used to conduct the surface Plasmon Resonance (SPR) experiments (Biacore, Piscataway, N.J.) as previously described (Rowe et al., Bone 36:33-46 (2005)). The experiments were performed at 25° C. using Biacore buffer (10 mM HEPES pH 7.4, 150 mM NaCl, 0.005% surfactant P20) supplemented with 2 mM ZnCl2 (HBS-P-Zn) or without ZnCl2 (HBS-P) as indicated. Samples were injected at a flow rate of 5 ul/min. The surfaces of research grade CM5 chips were activated by a 6-min. injection of a solution containing 0.2 M N-ethyl-N9-(dimethylaminopropyl) carbodiimide and 0.05 M N-hydroxy-succinimide. Neutravidin (Pierce) was then immobilized on the same chip (ligands) in all four flow-cells using amine coupling chemistry. One neutravidin surface was left blank as a negative control. Biotinylated peptides (including biotinylated ASARM-PO4 peptide) were then added and captured on other individual flow-cells. […] The experiments were repeated on two different chips and immobilized peptides measured as surface plasmon response units as previously described (Rowe et al., Bone 36:33-46 (2005)). The response unit or RU is a measure of surface charge density oscillation and surface […] generation as detected by changes in incident refractive index monitored by the Biacore optical unit. […]

[2] = system: Murine bone marrow stromal cell (BMSCs) cultures; experiment: Bone marrow stromal cell mineralization assay (alizarin red staining); assay type: cell-based, mice
Description: The epiphyses of the bones from wild type (“WT”) and HYP mice were removed, and whole marrow was flushed from the diaphyses by centrifugation at 11500 rpm for 30 seconds in standard culture medium, which consisted of α-MEM (Mediatech Inc, Herndon Va., USA) supplemented with 10% FBS (Mediatech Inc, Herndon Va., USA), 10 U/ml penicillin/100 ug/ml streptomycin. The supernatant was removed, and the cell pellet was resuspended in fresh standard medium. The resuspended cells were plated in standard 25 cm^2 flasks and allowed to grow until confluence. The cells were passaged with 0.25% trypsin and 0.02% EDTA (Sigma Aldrich, Saint Louis, Mo., USA). Cells were plated on 24-well plastic culture plates at a concentration of 10×10^4 cells/well. Starting 72 hours after seeding (referred to as Day 0) nonadherent cells were discarded, and the medium was changed to one that supports osteoblast differentiation, that is, standard media plus 10 mM B glycerophosphate (Sigma Aldrich, Saint Louis, Mo., USA) and 50 mg/liter ascorbic acid (Sigma Aldrich, Saint Louis, Mo., USA). […] For quantification of staining, 500 μL 10% (v/v) acetic acid was added to each well, and the plate was incubated at room temperature for 30 min. with shaking. […] 150 μL aliquots of the supernatant were read in triplicate at 450 nm in 96-well format using opaque-walled, transparent-bottomed plates.

`N=C(N)NCCC[C@H](NC(=O)CCCCCNC(=O)CCCC[C@@H]1SC[C@@H]2NC(=O)N[C@@H]21)C(=O)N[C@@H](CC(=O)O)C(=O)N[C@@H](CC(=O)O)C(=O)N[C@@H](CO)C(=O)N[C@@H](CO)C(=O)N[C@@H](CCC(=O)O)C(=O)N[C@@H](CO)C(=O)N[C@@H](CO)C(=O)N[C@@H](CC(=O)O)C(=O)N[C@@H](CO)C(=O)NCC(=O)N[C@@H](COP(=O)(O)O)C(=O)N[C@@H](CO)C(=O)N[C@@H](COP(=O)(O)O)C(=O)N[C@@H](CCC(=O)O)C(=O)N[C@@H](COP(=O)(O)O)C(=O)N[C@@H](CC(=O)O)C(=O)NCC(=O)N[C@@H](CC(=O)O)C(=O)O` [biotinylated-ASARM-PO4] ({Biotin-Ahx}-RDDSSESSDSG[pS]S[pS]E[pS]DGD-OH) was tested. Which Kd [1] did it give?
Its Kd is 0.168 µM.

With “NH2-LKGDHSGGNGNYTGLDYNIPGYFRSTIPFHGEVDKENVAR-OH (H-LKGDHSGGNGNYTGLDYNIPGYFRSTIPFHGEVDKENVAR-OH; listed as Homo sapiens) [SPR5]” as the molecule, how does the “mineralization (alizarin red)” value ([2]; BMSC cultures supplemented with 10 μM peptide alone) read?
The value was “mineralization occurs with great efficiency”.

With “NH2-RDDSSESSDSGS(PO3H2)SS(PO3H2)ES(PO3H2)DGD-OH (H-RDDSSESSDSG[pS]S[pS]E[pS]DGD-OH; listed as Homo sapiens) [ASARM-PO4]” as the molecule, how does the “mineralization (alizarin red)” value ([2]; BMSC cultures supplemented with 5 μM ASARM-PO4 alone) read?
The value was “marked and statistically significant inhibition of mineralization”.
